Test results as given in paper PMC11982978, “Cancer hotspot mutations rewire ERK2 specificity by selective exclusion of docking interactions” (The Journal of Biological Chemistry, 2025).
Peptide text beside a SMILES is read from it. * marks the point of attachment. Biotin = O=C1N[C@H]2[C@H](CS[C@H]2CCCCC(=O)*)N1

Columns and labels:
Format in all cases: biochemical
ERK2 R133K = target: T1, ERK2 R133K (Mus musculus, UniProt P63085, R133K); experiment: Competitive peptide kinase assay (D-peptide inhibition), ERK2 R133K; conditions: Table S1, 5 μM reporter peptide, 10 nM ERK2, 10 μM ATP, three independent experiments
T1 construct: His6; made in house; host or cells: E. coli BL21(DE3), co-expressed with GST-MEK1ΔN3
T1 sequence (P63085 whole entry R133K): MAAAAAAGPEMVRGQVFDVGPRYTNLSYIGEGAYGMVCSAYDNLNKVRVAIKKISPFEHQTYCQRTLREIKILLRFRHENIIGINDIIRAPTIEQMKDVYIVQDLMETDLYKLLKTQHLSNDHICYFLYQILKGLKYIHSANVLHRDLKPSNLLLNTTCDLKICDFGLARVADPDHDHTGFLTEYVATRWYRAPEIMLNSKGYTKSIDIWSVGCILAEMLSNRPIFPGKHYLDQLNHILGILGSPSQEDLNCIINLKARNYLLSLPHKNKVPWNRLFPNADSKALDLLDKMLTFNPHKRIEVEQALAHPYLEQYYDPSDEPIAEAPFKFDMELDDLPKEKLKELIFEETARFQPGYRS
Method: (§1) We determined relative binding affinities for D-peptides from their potency as competitive inhibitors of WT or mutant ERK2 activity on a D-site-dependent reporter substrate peptide (Table S1, Fig. 3A, S3).
(§2) Competitive peptide kinase assays were performed with a D-site dependent MAPK reporter substrate peptide (AssayQuant Technologies Inc, #AQT0376) as we reported previously ([15]). Briefly, 5 μM of reporter peptide was mixed with various concentrations of D-peptides in reaction buffer (54 mM HEPES [pH 7.4], 1.2 mM DTT, 0.01% Brij-35, 1% glycerol, 0.2 mg/ml BSA, and 10 mM MgCl2). […] Phosphorylation of the reporter peptide was measured by fluorescence (λex 360 nm, λem 485 nm) in 90 s intervals over 21 min in a Spectra M5 plate reader. Rates were calculated from the linear portion of the reaction progress curve, and data were normalized to maximum (samples lacking competitor peptide) and minimum (control reactions lacking kinase) values. Normalized rates were plotted against D-peptide concentration and fitted into a sigmoidal dose-response curve to determine the IC50 values using GraphPad Prism (Version 9.3.0).

ERK2 D319N = target: T2, ERK2 D319N (Mus musculus, UniProt P63085, D319N); experiment: Competitive peptide kinase assay (D-peptide inhibition), ERK2 D319N; conditions: Table S1, 5 μM reporter peptide, 10 nM ERK2, 10 μM ATP, three independent experiments
T2 construct: His6; made in house; host or cells: E. coli BL21(DE3), co-expressed with GST-MEK1ΔN3
T2 sequence (P63085 whole entry D319N): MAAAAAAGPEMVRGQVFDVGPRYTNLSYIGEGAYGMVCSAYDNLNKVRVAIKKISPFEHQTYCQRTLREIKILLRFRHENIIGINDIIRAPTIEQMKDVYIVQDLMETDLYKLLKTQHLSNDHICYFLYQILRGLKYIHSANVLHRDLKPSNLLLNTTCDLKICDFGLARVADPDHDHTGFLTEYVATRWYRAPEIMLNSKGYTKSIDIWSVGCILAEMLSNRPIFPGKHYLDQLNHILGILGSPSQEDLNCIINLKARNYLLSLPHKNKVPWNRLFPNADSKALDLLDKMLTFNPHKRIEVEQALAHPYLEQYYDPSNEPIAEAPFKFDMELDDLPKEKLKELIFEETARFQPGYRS
Method: as §1, §2

ERK2 WT = target: T3, ERK2 WT (Mus musculus, UniProt P63085); experiment: Competitive peptide kinase assay (D-peptide inhibition), ERK2 WT; conditions: Table S1, 5 μM reporter peptide, 10 nM ERK2, 10 μM ATP, three independent experiments
T3 construct: His6; made in house; host or cells: E. coli BL21(DE3), co-expressed with GST-MEK1ΔN3
T3 sequence (P63085 whole entry): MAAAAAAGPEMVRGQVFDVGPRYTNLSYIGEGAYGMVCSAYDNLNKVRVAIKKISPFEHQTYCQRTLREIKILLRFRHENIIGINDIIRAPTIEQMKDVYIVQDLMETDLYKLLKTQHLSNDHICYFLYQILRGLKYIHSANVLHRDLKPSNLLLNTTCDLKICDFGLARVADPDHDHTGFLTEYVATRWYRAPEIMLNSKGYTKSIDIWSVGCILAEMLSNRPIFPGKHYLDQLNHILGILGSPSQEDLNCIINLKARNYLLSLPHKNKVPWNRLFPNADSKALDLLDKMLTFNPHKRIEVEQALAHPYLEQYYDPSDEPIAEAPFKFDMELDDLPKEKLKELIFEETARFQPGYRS
Method: as §1, §2

ERK2 E322K = target: T4, ERK2 E322K (Mus musculus, UniProt P63085, E320K); experiment: Competitive peptide kinase assay (D-peptide inhibition), ERK2 E322K; conditions: Table S1, 5 μM reporter peptide, 10 nM ERK2, 10 μM ATP, three independent experiments
T4 construct: His6; made in house; host or cells: E. coli BL21(DE3), co-expressed with GST-MEK1ΔN3
T4 sequence (P63085 whole entry E320K): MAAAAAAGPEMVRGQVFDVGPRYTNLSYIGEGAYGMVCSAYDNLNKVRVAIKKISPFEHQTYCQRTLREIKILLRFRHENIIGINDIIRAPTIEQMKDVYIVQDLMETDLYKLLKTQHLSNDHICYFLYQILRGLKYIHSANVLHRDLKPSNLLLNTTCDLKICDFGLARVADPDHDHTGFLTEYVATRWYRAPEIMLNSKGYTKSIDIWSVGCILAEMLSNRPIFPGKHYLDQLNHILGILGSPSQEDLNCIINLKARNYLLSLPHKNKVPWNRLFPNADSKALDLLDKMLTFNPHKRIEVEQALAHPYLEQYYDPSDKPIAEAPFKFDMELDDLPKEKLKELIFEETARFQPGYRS
Method: as §1, §2

His6-ERK2 WT = experiment: Radiolabel kinase assay with competing D-peptide; conditions: 10 μM KMT2C D-peptide, WT without peptide = 100.0; for ELK1 WT phosphorylation, Normalized: 0.5 μM GST-ELK1 WT; for ELK1 WT phosphorylation, Normalized / ELK1 ΔD phosphorylation, Normalized: 10 nM ERK2 WT; for ELK1 ΔD phosphorylation, Normalized: 0.5 μM GST-ELK1 ΔD; for GEF-H1 phosphorylation, Normalized: 0.5 μM His6-GEF-H1, 10 nM ERK2 WT
From the text: Based on our structural and mutational analysis, we hypothesized that ERK2 CD site mutants should not bind or efficiently phosphorylate validated ERK2 substrates containing an I/L-x-x-R-R D-site motif. We previously reported that while ISG20 interacts physically with ERK2 in cells, it is not an ERK2 substrate in vitro ([15]). […] We previously reported that disruption of the GEF-H1 docking motif reduced its extent of co-immunoprecipitation with ERK2 ([15]). Accordingly, we investigated whether cancer-associated ERK2 mutants were impaired in phosphorylating GEF-H1. […] The level of phosphorylation by CD site mutants was similar to that of WT ERK2 when assayed in the presence of excess competing D-peptide to block docking interactions.
Radiolabel kinase assays were performed as described previously by incubating 0.5 μM MAPK substrate (His6-GEF-H1, GST-ELK1^WT or GST-ELK1^ΔD), 10 nM His6-ERK2 (WT, R133K, D319N or E320K) and 10 μM inhibitor peptide KMT2C where indicated (biotin-RKRSKPKLKLKIIN-amide, Tufts University Core Facility) in reaction buffer (20 mM HEPES, 10 mM MgCl2, 1 mM DTT, 1% DMSO, 10 μM cold ATP, and 0.038 μCi/μl [γ-^32P] ATP) at 30 °C for 2 min. Reactions were quenched by the addition of 4x SDS-PAGE loading buffer and heated to 95 °C for 5 min before SDS-PAGE fractionation. Gels were stained with Coomassie blue, destained, dried, and exposed to a phosphor screen. Radiolabel incorporation was measured with Molecular Imager FX phosphorimager (Bio-Rad), and ^32P signal density (CNT/mm^2) was quantified using QuantityOne Software (Bio-Rad version 11.0.5). All signals were normalized to the vehicle control condition. Raw quantified data are provided in Dataset S3.

CC(C)C[C@H](NC(=O)[C@H](C)NC(=O)[C@@H](N)Cc1ccc(O)cc1)C(=O)N[C@@H](CCC(N)=O)C(=O)N[C@@H](CCC(N)=O)C(=O)N[C@@H](CCCNC(=N)N)C(=O)N[C@@H](CCCNC(=N)N)C(=O)N[C@@H](CC(C)C)C(=O)N[C@@H](CCC(N)=O)C(=O)N[C@@H](Cc1c[nH]cn1)C(=O)N[C@@H](CCCNC(=N)N)C(=O)N[C@@H](CC(C)C)C(=O)N[C@@H](CCCNC(=N)N)C(=O)N[C@@H](CC(C)C)C(=O)N[C@@H](CCCNC(=N)N)C(=O)N[C@@H](C)C(=O)O [AEBP1] (H-YALQQRRLQHRLRLRA-OH)
IC50 (ERK2 R133K): 110 µM | IC50 (ERK2 D319N): 120 µM | IC50 (ERK2 WT): 16 µM | IC50 (ERK2 E322K): 160 µM

CC(C)C[C@H](NC(=O)CNC(=O)[C@H](CCCNC(=N)N)NC(=O)[C@H](CCCNC(=N)N)NC(=O)[C@H](C)NC(=O)[C@H](CS)NC(=O)[C@H](CC(C)C)NC(=O)[C@H](C)NC(=O)[C@@H](N)Cc1ccc(O)cc1)C(=O)N[C@@H](Cc1ccc(O)cc1)C(=O)N[C@@H](CS)C(=O)N[C@@H](CC(C)C)C(=O)N[C@@H](CO)C(=O)N[C@@H](CC(C)C)C(=O)N[C@@H](CC(=O)O)C(=O)N[C@@H](Cc1c[nH]cn1)C(=O)O [FAAP100]
IC50 (ERK2 R133K): > 200 µM | IC50 (ERK2 D319N): > 200 µM | IC50 (ERK2 WT): 92 µM | IC50 (ERK2 E322K): > 200 µM

CC(C)C[C@H](NC(=O)[C@H](CC(=O)O)NC(=O)[C@H](CCCNC(=N)N)NC(=O)[C@@H]1CCCN1C(=O)[C@H](CCCCN)NC(=O)[C@H](CCCNC(=N)N)NC(=O)CNC(=O)[C@H](CCCCN)NC(=O)[C@H](C)NC(=O)[C@@H](N)Cc1ccc(O)cc1)C(=O)N[C@@H](CCC(=O)O)C(=O)N[C@@H](CC(C)C)C(=O)N1CCC[C@H]1C(=O)N[C@@H](CC(C)C)C(=O)N[C@@H](CO)C(=O)N1CCC[C@H]1C(=O)O [ELK1] (H-YAKGRKPRDLELPLSP-OH)
IC50 (ERK2 R133K): 58 µM | IC50 (ERK2 D319N): 32 µM | IC50 (ERK2 WT): 35 µM | IC50 (ERK2 E322K): 43 µM

CC(C)C[C@H](NC(=O)[C@@H](NC(=O)[C@H](CC(C)C)NC(=O)[C@H](CO)NC(=O)[C@@H](NC(=O)[C@H](CC(N)=O)NC(=O)[C@H](CO)NC(=O)CNC(=O)[C@H](CCCNC(=N)N)NC(=O)[C@H](CCCNC(=N)N)NC(=O)[C@H](CCC(=O)O)NC(=O)[C@H](CCC(N)=O)NC(=O)[C@H](CC(C)C)NC(=O)CNC(=O)[C@H](C)NC(=O)[C@@H](N)Cc1ccc(O)cc1)C(C)C)[C@@H](C)O)C(=O)O [PTPN5] (H-YAGLQERRGSNVSLTL-OH)
IC50 (ERK2 R133K): 760 µM | IC50 (ERK2 D319N): 600 µM | IC50 (ERK2 WT): 42 µM | IC50 (ERK2 E322K): 600 µM

CC[C@H](C)[C@H](NC(=O)[C@@H](NC(=O)[C@H](CC(C)C)NC(=O)[C@H](C)NC(=O)[C@@H]1CCCN1C(=O)[C@H](CC(C)C)NC(=O)[C@@H](NC(=O)[C@@H]1CCCN1C(=O)[C@H](CCCCN)NC(=O)[C@H](CCCNC(=N)N)NC(=O)[C@H](CCCNC(=N)N)NC(=O)[C@H](C)NC(=O)[C@H](C)NC(=O)[C@@H](N)Cc1ccc(O)cc1)C(C)C)[C@@H](C)O)C(=O)N[C@@H](CC(N)=O)C(=O)N1CCC[C@H]1C(=O)O [MAP2K2] (H-YAARRKPVLPALTINP-OH)
IC50 (ERK2 R133K): 29 µM | IC50 (ERK2 D319N): 23 µM | IC50 (ERK2 WT): 23 µM | IC50 (ERK2 E322K): 41 µM

CC(C)C[C@H](NC(=O)CNC(=O)[C@H](CCCCN)NC(=O)[C@H](Cc1ccccc1)NC(=O)[C@H](CC(N)=O)NC(=O)[C@H](CCCCN)NC(=O)[C@H](Cc1c[nH]c2ccccc12)NC(=O)[C@H](CCCCN)NC(=O)[C@@H]1CCCN1C(=O)[C@H](CO)NC(=O)[C@H](C)NC(=O)[C@@H](N)Cc1ccc(O)cc1)C(=O)N[C@@H](CCCCN)C(=O)N[C@@H](CC(C)C)C(=O)N[C@@H](CC(C)C)C(=O)N[C@@H](CS)C(=O)O [MLXIPL] (H-YASPKWKNFKGLKLLC-OH)
IC50 (ERK2 R133K): 23 µM | IC50 (ERK2 D319N): 26 µM | IC50 (ERK2 WT): 18 µM | IC50 (ERK2 E322K): 28 µM

Biotin-RKRSKPKLKLKIIN-NH2 [D-pep]
ELK1 WT phosphorylation, Normalized (His6-ERK2 WT; Replicate 1): 66.2 | ELK1 WT phosphorylation, Normalized (His6-ERK2 WT; Replicate 2): 52.7 | ELK1 WT phosphorylation, Normalized (His6-ERK2 WT; Replicate 3): 42.6 | ELK1 ΔD phosphorylation, Normalized (His6-ERK2 WT; Replicate 1): 107.4 | ELK1 ΔD phosphorylation, Normalized (His6-ERK2 WT; Replicate 2): 80.5 | ELK1 ΔD phosphorylation, Normalized (His6-ERK2 WT; Replicate 3): 85.4 | GEF-H1 phosphorylation, Normalized (His6-ERK2 WT; 30 °C 2 min, Replicate 1): 23.5 | GEF-H1 phosphorylation, Normalized (His6-ERK2 WT; Replicate 2): 37.1 | GEF-H1 phosphorylation, Normalized (His6-ERK2 WT; Replicate 3): 54.2
